# Source: ChEMBL document CHEMBL6071140, “Ocotillol Derivatives Mitigate Retinal Ischemia-Reperfusion Injury by Regulating the Keap1/Nrf2/ARE Signaling Pathway” (J Med Chem, 2024)
# System: not listed separately
# Assay: Cytotoxicity against rat R28 cells assessed as decrease in cellular ATP content incubated for 24 hrs by CellTiter-Lumi Plus cell viability assay
# Format: toxicity, cell-based
# Conditions: r28, 24 h
row,SMILES,Activity
1,CC(C)(O)[C@H]1CC[C@@](C)([C@H]2CC[C@]3(C)[C@@H]2[C@H](O)C[C@@H]2[C@@]4(C)Cc5c(C(=O)Nc6ccc(N)cc6)noc5C(C)(C)[C@@H]4CC[C@]23C)O1,Non-Toxic
2,CC(C)(O)[C@H]1CC[C@@](C)([C@H]2CC[C@]3(C)[C@@H]2[C@H](O)C[C@@H]2[C@@]4(C)CC[C@H](OC(=O)CCC(=O)Nc5cccc(N)c5)C(C)(C)[C@@H]4CC[C@]23C)O1,Non-Toxic
3,CC(C)(O)[C@@H]1CC[C@@](C)([C@H]2CC[C@]3(C)[C@@H]2[C@H](O)C[C@@H]2[C@@]4(C)CC[C@H](OC(=O)CCC(=O)Nc5ccc(N)cc5)C(C)(C)[C@@H]4CC[C@]23C)O1,Non-Toxic
4,CC(C)(O)[C@H]1CC[C@@](C)([C@H]2CC[C@]3(C)[C@@H]2[C@H](O)C[C@@H]2[C@@]4(C)Cc5sc(NC(=O)c6ccccc6C(=O)O)nc5C(C)(C)[C@@H]4CC[C@]23C)O1,Non-Toxic
5,CC(C)(O)[C@H]1CC[C@@](C)([C@H]2CC[C@]3(C)[C@@H]2[C@H](O)C[C@@H]2[C@@]4(C)Cc5c(C(=O)O)noc5C(C)(C)[C@@H]4CC[C@]23C)O1,Non-Toxic
6,CC(C)(O)[C@H]1CC[C@@](C)([C@H]2CC[C@]3(C)[C@@H]2[C@H](O)C[C@@H]2[C@@]4(C)CC[C@H](O)C(C)(C)[C@@H]4CC[C@]23C)O1,Non-Toxic
7,CC(C)(O)[C@H]1CC[C@@](C)([C@H]2CC[C@]3(C)[C@@H]2[C@H](O)C[C@@H]2[C@@]4(C)Cc5sc(N)nc5C(C)(C)[C@@H]4CC[C@]23C)O1,Non-Toxic
8,CC(C)(O)[C@@H]1CC[C@@](C)([C@H]2CC[C@]3(C)[C@@H]2[C@H](O)C[C@@H]2[C@@]4(C)Cc5c(C(=O)O)noc5C(C)(C)[C@@H]4CC[C@]23C)O1,Non-Toxic
9,CC(C)(O)[C@@H]1CC[C@@](C)([C@H]2CC[C@]3(C)[C@@H]2[C@H](O)C[C@@H]2[C@@]4(C)Cc5c(C(=O)NCCCCN)noc5C(C)(C)[C@@H]4CC[C@]23C)O1,Non-Toxic
10,CC(C)(O)[C@@H]1CC[C@@](C)([C@H]2CC[C@]3(C)[C@@H]2[C@H](O)C[C@@H]2[C@@]4(C)Cc5sc(NC(=O)CC(=O)O)nc5C(C)(C)[C@@H]4CC[C@]23C)O1,Non-Toxic
11,CC(C)(O)[C@H]1CC[C@@](C)([C@H]2CC[C@]3(C)[C@@H]2[C@H](O)C[C@@H]2[C@@]4(C)CC[C@H](OC(=O)CCC(=O)O)C(C)(C)[C@@H]4CC[C@]23C)O1,Non-Toxic
12,CC(C)(O)[C@@H]1CC[C@@](C)([C@H]2CC[C@]3(C)[C@@H]2[C@H](O)C[C@@H]2[C@@]4(C)CC[C@H](OC(=O)CCC(=O)NCCCN)C(C)(C)[C@@H]4CC[C@]23C)O1,Non-Toxic
13,CCOC(=O)c1noc2c1C[C@]1(C)[C@H]3C[C@@H](O)[C@@H]4[C@@H]([C@]5(C)CC[C@H](C(C)(C)O)O5)CC[C@@]4(C)[C@]3(C)CC[C@H]1C2(C)C,Non-Toxic
14,CC(C)(O)[C@@H]1CC[C@@](C)([C@H]2CC[C@]3(C)[C@@H]2[C@H](O)C[C@@H]2[C@@]4(C)Cc5sc(N)nc5C(C)(C)[C@@H]4CC[C@]23C)O1,Non-Toxic
15,CC(C)(O)[C@H]1CC[C@@](C)([C@H]2CC[C@]3(C)[C@@H]2[C@H](O)C[C@@H]2[C@@]4(C)CC[C@H](OC(=O)CCC(=O)Nc5ccccc5N)C(C)(C)[C@@H]4CC[C@]23C)O1,Non-Toxic
16,CC(C)(O)[C@@H]1CC[C@@](C)([C@H]2CC[C@]3(C)[C@@H]2[C@H](O)C[C@@H]2[C@@]4(C)Cc5sc(NC(=O)c6ccccc6C(=O)O)nc5C(C)(C)[C@@H]4CC[C@]23C)O1,Non-Toxic
17,CC(C)(O)[C@@H]1CC[C@@](C)([C@H]2CC[C@]3(C)[C@@H]2[C@H](O)C[C@@H]2[C@@]4(C)Cc5c(C(=O)NCCCN)noc5C(C)(C)[C@@H]4CC[C@]23C)O1,Non-Toxic

row,SMILES,Activity
1,CC(C)(O)[C@@H]1CC[C@@](C)([C@H]2CC[C@]3(C)[C@@H]2[C@H](O)C[C@@H]2[C@@]4(C)Cc5c(C(=O)NCCCCCCN)noc5C(C)(C)[C@@H]4CC[C@]23C)O1,Non-Toxic
2,CC(C)(O)[C@H]1CC[C@@](C)([C@H]2CC[C@]3(C)[C@@H]2[C@H](O)C[C@@H]2[C@@]4(C)Cc5sc(NC(=O)CCCSSCCCC(=O)O)nc5C(C)(C)[C@@H]4CC[C@]23C)O1,Non-Toxic
3,CC(C)(O)[C@@H]1CC[C@@](C)([C@H]2CC[C@]3(C)[C@@H]2[C@H](O)C[C@@H]2[C@@]4(C)CC[C@H](OC(=O)CCC(=O)Nc5ccccc5N)C(C)(C)[C@@H]4CC[C@]23C)O1,Non-Toxic
4,CC(C)(O)[C@H]1CC[C@@](C)([C@H]2CC[C@]3(C)[C@@H]2[C@H](O)C[C@@H]2[C@@]4(C)Cc5sc(NC(=O)CCCC(=O)O)nc5C(C)(C)[C@@H]4CC[C@]23C)O1,Non-Toxic
5,CC(C)(O)[C@@H]1CC[C@@](C)([C@H]2CC[C@]3(C)[C@@H]2[C@H](O)C[C@@H]2[C@@]4(C)Cc5sc(NC(=O)CCCSSCCCC(=O)O)nc5C(C)(C)[C@@H]4CC[C@]23C)O1,Non-Toxic
6,CC(C)(O)[C@H]1CC[C@@](C)([C@H]2CC[C@]3(C)[C@@H]2[C@H](O)C[C@@H]2[C@@]4(C)Cc5c(C(=O)NCCCN)noc5C(C)(C)[C@@H]4CC[C@]23C)O1,Non-Toxic
7,CCOC(=O)c1noc2c1C[C@]1(C)[C@H]3C[C@@H](O)[C@@H]4[C@@H]([C@]5(C)CC[C@@H](C(C)(C)O)O5)CC[C@@]4(C)[C@]3(C)CC[C@H]1C2(C)C,Non-Toxic
8,CC(C)(O)[C@@H]1CC[C@@](C)([C@H]2CC[C@]3(C)[C@@H]2[C@H](O)C[C@@H]2[C@@]4(C)CC[C@H](O)C(C)(C)[C@@H]4CC[C@]23C)O1,Non-Toxic
9,CC(C)(O)[C@H]1CC[C@@](C)([C@H]2CC[C@]3(C)[C@@H]2[C@H](O)C[C@@H]2[C@@]4(C)CC[C@H](OC(=O)CCC(=O)NCCCN)C(C)(C)[C@@H]4CC[C@]23C)O1,Non-Toxic
10,CC(C)(O)[C@H]1CC[C@@](C)([C@H]2CC[C@]3(C)[C@@H]2[C@H](O)C[C@@H]2[C@@]4(C)Cc5sc(NC(=O)CC(=O)O)nc5C(C)(C)[C@@H]4CC[C@]23C)O1,Non-Toxic
11,CC(C)(O)[C@H]1CC[C@@](C)([C@H]2CC[C@]3(C)[C@@H]2[C@H](O)C[C@@H]2[C@@]4(C)CC[C@H](OC(=O)CCC(=O)Nc5ccc(N)cc5)C(C)(C)[C@@H]4CC[C@]23C)O1,Non-Toxic
12,CC(C)(O)[C@@H]1CC[C@@](C)([C@H]2CC[C@]3(C)[C@@H]2[C@H](O)C[C@@H]2[C@@]4(C)CC[C@H](OC(=O)CCC(=O)O)C(C)(C)[C@@H]4CC[C@]23C)O1,Non-Toxic
13,CC(C)(O)[C@@H]1CC[C@@](C)([C@H]2CC[C@]3(C)[C@@H]2[C@H](O)C[C@@H]2[C@@]4(C)CC[C@H](OC(=O)CCC(=O)Nc5cccc(N)c5)C(C)(C)[C@@H]4CC[C@]23C)O1,Non-Toxic
14,CC(C)(O)[C@@H]1CC[C@@](C)([C@H]2CC[C@]3(C)[C@@H]2[C@H](O)C[C@@H]2[C@@]4(C)Cc5sc(NC(=O)CCCC(=O)O)nc5C(C)(C)[C@@H]4CC[C@]23C)O1,Non-Toxic
15,CC(C)(O)[C@H]1CC[C@@](C)([C@H]2CC[C@]3(C)[C@@H]2[C@H](O)C[C@@H]2[C@@]4(C)Cc5c(C(=O)NCCCCCCN)noc5C(C)(C)[C@@H]4CC[C@]23C)O1,Non-Toxic
16,CC(C)(O)[C@@H]1CC[C@@](C)([C@H]2CC[C@]3(C)[C@@H]2[C@H](O)C[C@@H]2[C@@]4(C)Cc5c(C(=O)Nc6ccc(N)cc6)noc5C(C)(C)[C@@H]4CC[C@]23C)O1,Non-Toxic
17,CC(C)(O)[C@H]1CC[C@@](C)([C@H]2CC[C@]3(C)[C@@H]2[C@H](O)C[C@@H]2[C@@]4(C)Cc5c(C(=O)NCCCCN)noc5C(C)(C)[C@@H]4CC[C@]23C)O1,Non-Toxic

# System: R28
# Assay: Antioxidant activity in rat R28 cells assessed as protection against OGD induced cytotoxicity by measuring cellular ATP level preincubated under OGD condition for 8 hrs followed by reoxygenation for 4 hrs by CellTiter-Lumi Plus cell viability assay
# Format: functional, cell-based
# Conditions: dose 0.1-40 µM, time 12.0 hrs
row,SMILES,Activity
1,CC(C)(O)[C@H]1CC[C@@](C)([C@H]2CC[C@]3(C)[C@@H]2[C@H](O)C[C@@H]2[C@@]4(C)CC[C@H](O)C(C)(C)[C@@H]4CC[C@]23C)O1,Dose-Dependent Effect
